Here are results for 1 compound from patent US20060009520A1, “Retinoid-based methods for altering macrophage cholesterol” (priority 2004, published 2006).

Assay [1] concerns ABCA1, ABCG1, SREBP-1c, apoE, LXRα, Cyp26 mRNA. The assay can be described thus: Quantitative real-time PCR of LXR target genes and Cyp26 in human monocyte-derived macrophages. The following applies: human macrophages. It counts as cell-based. As to the method:
(§1) For quantification of mouse Cyp26 mRNA levels, each amplification mixture (25 μ) contained 62.5 ng of cDNA, 100 nM concentrations of reverse and forward primers, and 2.5 μl of 10× SYBR Green PCR master mix (Perkin-Elmer Life Sciences, Boston, Mass.). Quantitative expression values were extrapolated from standard curves for Cyp26 expression with 10-fold dilutions of cDNA (in triplicate). Each sample was normalized to β-actin that was deduced from TaqMan assays, triplicate results were averaged, and relative Cyp26 mRNA levels were determined. The primers mCyp26 F (5′-[…]-3′) and mCyp26 R (5′-[…]-3′) were used. RNA measurements from human monocyte-derived macrophages were performed as described previously (10, 44).

Another assay deals with RARα protein. The assay can be described thus: Western blot of nuclear RARα in RARγ-deficient macrophages. To be noted: TTNPB treatment. It is filed as cell-based, mouse. On the procedure:
Nuclear protein extracts from tissues and macrophages were isolated according to the following method. Tissue samples and cells were first homogenized on ice and then lysed in lysis buffer (10 mM Tris [pH 7.5], 3 mM MgCl2, 10 mM NaCl, 0.5% NP-40) containing protease inhibitor cocktail. The nucleus was then pelleted by centrifugation for 10 min at 6,000× g, immediately resuspended in a nucleus suspension buffer (250 mM Tris [pH 8.0], 60 mM KCl, I mM dithiothrietol), and then rotated for 1 h. After centrifugation for 5 min at 6000× g, the solubilized nuclear proteins were separated by electrophoresis with a 4 to 15% gradient gel (Bio-Rad), transferred to nitrocellulose membrane (Trans-Blot transfer medium; Bio-Rad), and probed with anti-RARγ and anti-RARα antibodies (Santa Cruz Biotechnology, Santa Cruz, Calif.) and their respective horseradish peroxidase-conjugated secondary antibodies according to the manufacturer's recommendations. The intensities of the bands were quantified by using ImageQuant and normalized to (β-actin.

Assay [2] deals with ABCA1, ABCG1, SREBP-1c, apoE, LXRα, Cyp26 mRNA. The assay can be described thus: Quantitative real-time PCR of LXR target genes and Cyp26 in mouse peritoneal macrophages. It counts as cell-based. As to the method: Total RNA was isolated from mouse peritoneal macrophages or ˜50 mg of mouse liver tissue by using the RNeasy Mini kit (Qiagen, Valencia, Calif.) or RNA-Bee reagent (Tel-Test, Inc., Friendswood, Tex.), respectively, according to the manufacturer's protocol. Real-time quantitative PCR assays were performed by using the Mx4000 Quantitative PCR System (Stratagene, La Jolla, Calif.). Briefly, 5 μg of total RNA was treated with RNase-free DNase I (Ambion, Austin, Tex.), and first-strand cDNA was synthesized with oligo(dT)12-18 by using a Superscript II RNase H^− reverse transcriptase reagent kit (Invitrogen) according to the manufacturer's protocol. For quantification of mouse ABCA1, ABCG1, SREBP-1c, LXRα, ApoE, and fatty acid synthase (FAS) mRNA levels, each amplification mixture contained 62.5 ng of cDNA, appropriate concentrations of forward and reverse primers and of dual-labeled fluorogenic probe (Biosearch Technologies, Novato, Calif.), and 12.5 μl of TaqMan Universal PCR master mix (Applied Biosystems, Foster City, Calif.). PCR thermocycling parameters were 50° C. for 2 min, 95° C. for 10 min, and 45 cycles of 95° C. for 15 s and 60° C. for 1 min. All samples were analyzed for β-actin expression in the same run. Quantitative expression values were extrapolated from standard curves for the gene of interest with 10-fold dilutions of cDNA (in triplicate). Each sample was normalized to β-actin, triplicates were averaged, and relative mRNA levels were determined. The following mouse primers and probes were used: mouse ABCA1 (mABCA1) forward (F) (5′-[…]-3′), mABCA1 reverse (R) (5′-[…]-3′), and mABCA1 TaqMan probe (5′-FAM-[…]-BHQ-3′); mABCG1 F (5′-[…]-3′), mABCG1 R (5′-[…]-3′), and mABCG1 TaqMan probe (5′-FAM-[…]-BHQ-3′); mSREBP-1c F (5′-[…]-3′), mSREBP-1c R (5′-[…]-3′), and mSREBP-1c TaqMan probe (5′-FAM-[…]-BHQ-3′); mApoE F (5′-[…]-3′), mApoE R (5′-[…]-3′), and mApoE TaqMan probe (5′-FAM-[…]-BHQ-3′); mLXRα F (5′-[…]-3′), mLXRα R (5′-[…]-3′), and mLXRα TaqMan probe (5′-FAM-[…]-BHQ-3′); mFAS F (5′-[…]-3′), mFAS R (5′-[…]-3′), and mFAS TaqMan probe (5′-FAM-[…]-BHQ-3′); and mβ-actin F (5′-[…]-3′), mβ-actin R (5′-[…]-3′), and mβ-actin TaqMan probe (5′-JOE-[…]-BHQ-3′).
as §1

Another assay deals with T1, FXR (Mus musculus, UniProt Q60641).
T1 sequence (Q60641 1-488): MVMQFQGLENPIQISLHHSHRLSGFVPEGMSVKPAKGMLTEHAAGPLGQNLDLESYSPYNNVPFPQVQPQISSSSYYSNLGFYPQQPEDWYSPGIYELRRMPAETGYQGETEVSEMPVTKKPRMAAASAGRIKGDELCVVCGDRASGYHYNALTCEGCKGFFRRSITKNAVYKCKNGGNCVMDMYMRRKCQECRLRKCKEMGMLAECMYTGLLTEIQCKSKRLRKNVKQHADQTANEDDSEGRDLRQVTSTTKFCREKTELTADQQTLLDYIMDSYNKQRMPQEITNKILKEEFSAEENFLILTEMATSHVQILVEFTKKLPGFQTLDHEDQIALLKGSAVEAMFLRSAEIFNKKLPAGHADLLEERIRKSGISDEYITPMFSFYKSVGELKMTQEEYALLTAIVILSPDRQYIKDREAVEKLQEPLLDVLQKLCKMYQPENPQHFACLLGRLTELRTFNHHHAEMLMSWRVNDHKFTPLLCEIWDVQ
To be noted: cited from earlier work.

[3] abbreviates: mouse peritoneal macrophages, TTNPB 1 μM, 24 h.

Structures are written as SMILES.

Regarding `C/C(=C\c1ccc(C(=O)O)cc1)c1ccc2c(c1)C(C)(C)CCC2(C)C` [TTNPB, 4-[E-2-5,6.7.8-tetrahydro-5,5,8,8-tetramethyl-2-naphthalenyl-l-propenyl]benzoic acid], in assay [1], the “Cyp26 mRNA increase” value is roughly 6 fold and the “induction of ABCA1 or other LXR target genes, compared with ATRA” value was “much less effective than ATRA”. Besides, the “decrease of nuclear RARα” value with RARα protein is given as roughly 2 fold. Further, in assay [2] (setting [3]), the “ABCA1 mRNA” value is “induction of macrophage ABCA1 mRNA” and the “SREBP-1c mRNA” value is “no effect”. Further, in assay [2] (murine macrophages), the “Cyp26 mRNA increase” value was 30 fold. Also, on FXR, the FXR activation result is “activates FXR at relatively high concentrations”.
